According to patent publication US12528777B2, “Quinazolinones derivatives for treatment of non-alcoholic fatty liver disease, preparation and use thereof” (Council of Scientific and Industrial Research, priority 2020, dated 2026):

Experiments:
HepG2 cells = experiment: Confocal microscopy: lipid droplets in oleate induced HepG2 cells; format: cell-based; set-up: key to Reduction in Lipid Droplets: + = slight or in insignificant; ++ = Moderate; +++ and ++++ = active; +++ and ++++ = active; +++++ = very active; conditions: for Reduction in Lipid Droplets: oleate induced HepG2 cells, score; for Number of lipid droplets: HepG2 cells, 250 μM oleate induction
Protocol: To select the compounds capable of inhibiting the ubiquitination of ATGL by COP1 by targeting the VP motif, confocal microscopy was performed with the provided molecules. If the compound was effective in inhibiting the interaction, there would be a reduction in the number of fat droplets in the cells after treatment. […] With this rationale in mind, HepG2 cells were induced to accumulate lipid droplets after treatment with 250 µM of oleate and 10 μM of the specific compounds were added. The potential of the compounds to bring about a reduction in the number of fat droplets was then checked by comparison with oleate induced cells by counting number of droplets of approximately 20 cells from each treatment and calculating the average number of lipid droplets of each cell. The selected compounds were then subjected to dose dependent treatments and the ones which could maintain its potency to reduce fat droplets at lower doses were then selected for western blot analysis. The compound which could reduce the number of fat droplets in the cells are expected to raise the levels of ATGL since they are likely to deter COP1 from ubiquitinating ATGL. This increase will be visible only in the protein level and gene expression is likely to remain unchanged since ubiquitination is a […] modification. Thus, western blot was performed to check ATGL levels in the cells with the selected molecules.
HepG2 cells were plated in confocal dishes (SPL, Genetix Biotech Asia Pvt. Ltd.). The cells were allowed to adhere and divide for 16 hours. 10 μM for initial screening and 10 nM, 20 nM, 50 nM, 100 nM, 200 nM, 500 nM, 1 μM and 5 μM for dose dependent assays of the compounds 9 and 107 were dissolved in DMSO and added to the cells. 250 μM of oleate was used for induction. BSA (Sigma Aldrich) was used as a negative control. Post 24 hours of treatment, media was decanted from the cells and washed with 1×PBS solution to remove any remnant. 200 μl of staining solution containing 200 ng/ml BODIPY (Invitrogen) and 25 µg/ml HOECKST342 (Invitrogen) were added to the cells and incubated at 37° C. for 30 minutes under dark conditions. Cells were washed 3 times with 1×PBS to remove excess stain. FLUOVIEW FV10i (Olympus) was used to visualise the cells.

Plasma stability assay = format: in vitro ADME, human; conditions: for Mean % remaining at 2 hrs in human Plasma: 1 μM, 37° C., 120 min, LC-MS/MS; for Plasma stability: human plasma, after 2 hours, with respect to Propantheline
Protocol: 1 mM Stock of test compound was prepared from 10 mM initial stock solution of compounds by diluting 10 μL of 10 mM stock with 90 μL of DMSO. Then 10 μL of 1 mM stock was diluted with 90 µL of DMSO to give 100 μM concentration. The frozen plasma was thawed at room temperature and centrifuged at 1400 rpm at 4° C., for 15 minutes. Approximately […] of the clear supernatant fraction was transferred to a separate tube and was used for the assay. Final working stock of 1 μM was prepared by diluting 3 μL of 100 μM with 297 μL of plasma. Plasma containing the test compound was incubated for 120 min at 37° C. in shaker with 500 rpm. 50 μL of aliquot of sample at 0, 15, 30, 60 and 120 minutes were precipitated with 150 μL of acetonitrile containing internal standard and centrifuged at 4000 rpm at 4° C. for 20 minutes. 120 μL of supernatant was diluted with 120 μL of water and analyzed by LC-MS/MS.

[1] = Lipophilicity assay (octanol/buffer); format: physicochemical; conditions: for logD / LogD @ pH 7.4: n-octanol / 10 mM sodium phosphate buffer pH 7.4, LC-UV; for Lipophilicity class from Log D: pH 7.4
Protocol: 1.56 g NaH2PO4·2H2O was dissolved in 0.5 L water in a 1 L beaker. After adjusting pH to 7.4 using NaOH solution, the volume was made up to 1 L. Equal volumes of sodium phosphate buffer (10 mM, pH 7.4) and n-octanol were added to a separation funnel and mixed thoroughly by shaking and inverting the funnel several times. The two layers were allowed to separate for overnight and then dispensed in two separate glass bottles. 10 mM stock solution was prepared in 100% DMSO and stored at 4° C. 495 μL of organic phase (1-octanol) was added to each well of a 2 mL deep well plate, followed by 495 μL of buffer and 10 μL of test compound was added. The plate was incubated for 3 hr at room temperature on a plate shaker at 500 rpm. After incubation, the samples were allowed to equilibrate for 20 min and then centrifuged at 4000 rpm for 30 min for complete phase separation and analysed by LC-UV.
Log D=Log (area of octanol/area of buffer)

ATGL = experiment: Western blot of ATGL level in HepG2 cells; format: cell-based; set-up: key to Increase in ATGL level: + = slight or in insignificant; ++ = Moderate; +++ and ++++ = active; +++ and ++++ = active; +++++ = very active; conditions: western blot; for Increase in ATGL level: HepG2 cells, score; for ATGL level in HepG2 cells: 24 hours, 10 μM screening or 50 nM-5 μM dose dependent
Summary of the method: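 HepG2 cells were treated with compound 24 h (10 μM screen; 50 nM–5 μM dose series) and lysed. 30 μg protein was western blotted for ATGL, with actin as loading reference. ATGL increase was expressed as percent of the 1.6-fold siCOP1 maximum and plotted against log concentration for EC50.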

[2] = Metabolic stability using Human Liver Microsomes; format: in vitro ADME
Protocol: 1 mM stock solution of test compound was prepared in DMSO and diluted with Acetonitrile:Water (1:1) to get a 100 μM working concentration. 100 mL of Milli Q water was added to K2HPO4 (1.398 g) and KH2PO4 (0.27 g) to get final pH 7.4 solution of potassium phosphate buffer. […] The above mixture was pre incubated for 15 minutes at 37° C. After pre incubation, 32.5 μL of the mixture was added to 17.5 μL of buffer, this was incubated for 60 minutes at 37° C. [60 min Without Cofactor (NADPH)]. 16.25 μL of the pre incubated mixture and 8.75 μL of cofactor was added to 150 μL of acetonitrile containing internal standard [0 min Sample]. 62 μL of cofactor was added to remaining pre incubation mixture [Incubation mixture]. 25 μL of incubation mixture at 0, 5, 15, 30, 60 min and 60 min without cofactor were precipitated with 150 μL of acetonitrile containing internal standard, vortexed and centrifuged at 4000 rpm at 4° C. for 20 minutes. 120 μL of supernatant was diluted with 120 μL of water and analyzed by LC-MS/MS [sample preparation].

SMILES	Reduction in Lipid Droplets (HepG2 cells)	Increase in ATGL level (ATGL)	further results
COCCn1c(C2CCCCC2)nc2ccc(NC(=O)Nc3cccc(C(C)=O)c3)cc2c1=O [Compound 123, 1-(3-acetylphenyl)-3-(2-cyclohexyl-3-(2-methoxyethyl)-4-oxo-3,4-dihydroquinazolin-6-yl)urea]	+++	++++	Mean % remaining at 2 hrs in human Plasma (Plasma stability assay): 48.5%; Plasma stability (Plasma stability assay): good plasma stability; logD [1]: 0.84; Lipophilicity class from Log D [1]: hydrophilic; ATGL level in HepG2 cells (ATGL): increased ATGL level
COCCc1ccc(OCC(O)CNC(C)C)cc1 (centres unmarked) [Metroprolol, reference compound]			LogD @ pH 7.4 [1]: −0.09
CC(C)[N+](C)(CCOC(=O)C1c2ccccc2Oc2ccccc21)C(C)C [Propantheline, reference compound]			Mean % remaining at 2 hrs in human Plasma (Plasma stability assay): 1.7%
O=c1c(O)c(-c2ccc(O)c(O)c2)oc2cc(O)cc(O)c12 [Quercetin, reference compound]			LogD @ pH 7.4 [1]: 2.81
COCCn1cnc2ccc(NC(=O)Nc3ccccc3OC)cc2c1=O [Compound 41, 1-(3-(2-methoxyethyl)-4-oxo-3,4-dihydroquinazolin-6-yl)-3-(2-methoxyphenyl)urea]	++	++++	
COCCn1c(C(C)C)nc2ccc(NC(=O)Nc3cccc(C(C)=O)c3)cc2c1=O [Compound 111, 1-(3-acetylphenyl)-3-(2-isopropyl-3-(2-methoxyethyl)-4-oxo-3,4-dihydroquinazolin-6-yl)urea]	++	+++	
CCOC(=O)Cn1cnc2ccc(NC(=O)Nc3cccc(C(C)=O)c3)cc2c1=O [Compound 85, ethyl 2-(6-(3-(3-acetylphenyl)ureido)-4-oxoquinazolin-3 (4H)-yl)acetate]	+	+	
CC(=O)c1cccc(NC(=O)Nc2ccc3ncn(CCN(C)C)c(=O)c3c2)c1 [Compound 143, 1-(3-acetylphenyl)-3-(3-(2-(dimethylamino)ethyl)-4-oxo-3,4-dihydroquinazolin-6-yl)urea]	+++	++++	Number of lipid droplets (HepG2 cells): reduction in lipid droplets; ATGL level in HepG2 cells (ATGL): some sort of increase in ATGL level
COCCn1cnc2ccc(NC(=O)Nc3cccc(C(=O)NC4CCCCC4)c3)cc2c1=O [Compound 15, N-cyclohexyl-3-(3-(3-(2-methoxyethyl)-4-oxo-3,4-dihydroquinazolin-6-yl)ureido)benzamide]	+	++++	
CCOC(=O)c1cccc(NC(=O)Nc2ccc3ncn(CCOC)c(=O)c3c2)c1 [Compound 42, ethyl 3-(3-(3-(2-methoxyethyl)-4-oxo-3,4-dihydroquinazolin-6-yl)ureido)benzoate]	+	+	
COCCn1cnc2ccc(NC(=O)Nc3cccc(C(C)O)c3)cc2c1=O (centres unmarked) [Compound 11, 1-(3-(1-hydroxyethyl)phenyl)-3-(3-(2-methoxyethyl)-4-oxo-3,4-dihydroquinazolin-6-yl)urea]	+	+	ATGL level in HepG2 cells (ATGL): increased ATGL level
COCCn1cnc2ccc(NC(=O)Nc3ccc(OC)cc3)cc2c1=O [Compound 40, 1-(3-(2-methoxyethyl)-4-oxo-3,4-dihydroquinazolin-6-yl)-3-(4-methoxyphenyl)urea]	++	++++	
CC(=O)c1cccc(NC(=O)Nc2ccc3ncn(CCN4CCCCC4)c(=O)c3c2)c1 [Compound 147, 1-(3-acetylphenyl)-3-(4-oxo-3-(2-(piperidin-1-yl)ethyl)-3,4-dihydroquinazolin-6-yl)urea]	++	+++	Number of lipid droplets (HepG2 cells): reduction in lipid droplets; ATGL level in HepG2 cells (ATGL): some sort of increase in ATGL level
CC(=O)c1cccc(NC(=O)Nc2ccc3ncn(-c4ccccn4)c(=O)c3c2)c1 [Compound 159, 1-(3-acetylphenyl)-3-(4-oxo-3-(pyridin-2-yl)-3,4-dihydroquinazolin-6-yl)urea]		+	Number of lipid droplets (HepG2 cells): reduction in lipid droplets; ATGL level in HepG2 cells (ATGL): some sort of increase in ATGL level
CCc1cccc(NC(=O)Nc2ccc3ncn(CCOC)c(=O)c3c2)c1 [Compound 13, 1-(3-ethylphenyl)-3-(3-(2-methoxyethyl)-4-oxo-3,4-dihydroquinazolin-6-yl)urea]	+	+	
COCCn1c(C(=O)N2CCCCC2)nc2ccc(NC(=O)Nc3cccc(C(C)=O)c3)cc2c1=O [Compound 330a, 1-(3-acetylphenyl)-3-(3-(2-methoxyethyl)-4-oxo-2-(piperidine-1-carbonyl)-3,4-dihydroquinazolin-6-yl)urea]			Clearance class from % QH [2]: lower clearance; % QH (Well stirred model) ([2]; NADPH, 0-60 min): 26.0%; Mean % remaining at 2 hrs in human Plasma (Plasma stability assay): 45.8%; Plasma stability (Plasma stability assay): good plasma stability; logD [1]: 1.79; Lipophilicity class from Log D [1]: ideal lipophilicity
COCCn1cnc2ccc(NC(=O)Nc3ccc(OC(F)(F)F)cc3)cc2c1=O [Compound 37, 1-(3-(2-methoxyethyl)-4-oxo-3,4-dihydroquinazolin-6-yl)-3-(4-(trifluoromethoxy)phenyl)urea]	+	+	
COCCn1cnc2ccc(NC(=O)Nc3cc(C(=O)OC)ccc3OC)cc2c1=O [Compound 12, methyl 4-methoxy-3-(3-(3-(2-methoxyethyl)-4-oxo-3,4-dihydroquinazolin-6-yl)ureido)benzoate]	++	+++	
CCOCCn1cnc2ccc(NC(=O)Nc3ccc(C(C)=O)cc3)cc2c1=O [Compound 94, 1-(4-acetylphenyl)-3-(3-(2-ethoxyethyl)-4-oxo-3,4-dihydroquinazolin-6-yl)urea]	++	+	
